# Assay results taken from ChEMBL document CHEMBL1142159, “Aph(3')-IIc, an aminoglycoside resistance determinant from Stenotrophomonas maltophilia” (2007).
# Legend:
# Escherichia coli [1] = details: DH5alpha
# Escherichia coli [2] = details: DH5alpha; remark: listed apart in the source
# Escherichia coli [3] = details: DH5alpha; remark: listed apart in the source
# [4] = system: Stenotrophomonas maltophilia; assay: Antimicrobial activity against Stenotrophomonas maltophilia K279a (aph FS) mutant; assay type: functional
# [5] = system: Stenotrophomonas maltophilia; assay: Antimicrobial activity against Stenotrophomonas maltophilia K279a mutant; assay type: functional
# Escherichia coli [6] = details: DH5alpha; remark: listed apart in the source
# Escherichia coli [7] = assay: Antimicrobial activity against recombinant Escherichia coli DH5alpha expressing pBAD; assay type: functional
# Escherichia coli [8] = assay: Antimicrobial activity against recombinant Escherichia coli DHalpha expressing pBAD [aph(3')-2]; assay type: functional; details: DH5alpha
# Escherichia coli [9] = assay: Antimicrobial activity against recombinant Escherichia coli DH5-alpha expressing pBAD in the presence of arabinose; assay type: functional; details: DH5alpha
# Escherichia coli [10] = assay: Antimicrobial activity against recombinant Escherichia coli DH5-alpha expressing pBAD [aph(3')-2] in the presence of arabinose; assay type: functional; details: DH5alpha
Molecule,MIC (Escherichia coli [1]) [µg/mL],MIC (Escherichia coli [2]) [µg/mL],MIC (Escherichia coli [3]) [µg/mL],MIC [4] [µg/mL],MIC [5] [µg/mL],MIC (Escherichia coli [6]) [µg/mL],MIC (Escherichia coli [7]) [µg/mL],MIC (Escherichia coli [8]) [µg/mL],MIC (Escherichia coli [9]) [µg/mL],MIC (Escherichia coli [10]) [µg/mL]
butirosin,0.125,0.125,4,1,8,0.125,–,–,–,–
NC[C@H]1O[C@H](O[C@H]2[C@H](O)[C@@H](O[C@H]3O[C@H](CO)[C@@H](O)[C@H](N)[C@H]3O)[C@H](N)C[C@@H]2N)[C@H](N)C[C@@H]1O [TOBRAMYCIN],–,–,–,32,32,–,0.5,0.5,0.5,8
NC[C@@H]1O[C@H](O[C@H]2[C@@H](O)[C@H](O[C@@H]3[C@@H](O)[C@H](N)C[C@H](N)[C@H]3O[C@H]3O[C@H](CO)[C@@H](O)[C@H](O)[C@H]3N)O[C@@H]2CO)[C@H](N)[C@@H](O)[C@@H]1O [PAROMOMYCIN],–,–,–,64,256,–,0.25,0.25,0.25,128
NCC[C@H](O)C(=O)N[C@@H]1C[C@H](N)[C@@H](O[C@H]2O[C@H](CN)[C@@H](O)[C@H](O)[C@H]2O)[C@H](O)[C@H]1O[C@H]1O[C@H](CO)[C@@H](O)[C@H](N)[C@H]1O [AMIKACIN],–,–,–,64,64,–,0.5,0.5,0.5,4
NC[C@@H]1O[C@H](O[C@H]2[C@@H](O)[C@H](O[C@@H]3[C@@H](O)[C@H](N)C[C@H](N)[C@H]3O[C@H]3O[C@H](CN)[C@@H](O)[C@H](O)[C@H]3N)O[C@@H]2CO)[C@H](N)[C@@H](O)[C@@H]1O [FRAMYCETIN],–,–,–,64,512,–,0.5,0.5,0.5,64
CN[C@@H]1[C@@H](O)[C@@H](O[C@@H]2[C@@H](O)[C@H](O[C@H]3OC(CN)=CC[C@H]3N)[C@@H](N)C[C@H]2N)OC[C@]1(C)O [SISOMICIN],–,–,–,8,8,–,0.125,0.125,0.125,0.125
NC[C@H]1O[C@H](O[C@H]2[C@H](O)[C@@H](O[C@H]3O[C@H](CO)[C@@H](O)[C@H](N)[C@H]3O)[C@H](N)C[C@@H]2N)[C@H](O)[C@@H](O)[C@@H]1O [KANAMYCIN],–,–,–,8,256,–,–,–,–,–
NC[C@@H]1O[C@H](O[C@H]2[C@@H](O)[C@H](O[C@@H]3[C@@H](O)[C@H](N)C[C@H](N)[C@H]3O[C@H]3O[C@H](CO)[C@@H](O)C[C@H]3N)O[C@@H]2CO)[C@H](N)[C@@H](O)[C@@H]1O[C@H]1O[C@H](CO)[C@@H](O)[C@H](O)[C@@H]1O [LIVIDOMYCIN],–,–,–,128,128,–,4,4,4,8
GENTAMICIN,1,1,1,16,16,1,–,–,–,–
